Tested on: C. glabrata strain ATCC 200989
Test: geneticin resistance growth test on -Ura medium, uninduced and copper-induced
Format: cell-based, Candida glabrata
Description: C. C. glabrata strain with expression plasmid pFPG1 lacking or carrying the wildtype neomycin/kanamycin resistance gene (which confers resistance to the antibiotic geneticin), on -Ura media supplemented with 1 mg/ml geneticin.
C. C. glabrata strain with expression plasmid pFPG2 lacking or carrying the wildtype neomycin/kanamycin resistance gene (which confers resistance to the antibiotic geneticin), on -Ura media supplemented with 1 mg/ml geneticin.
The neomycin/kanamycin resistance gene from Tn903 confers resistance of C. glabrata to the antibiotic G418, geneticin (Cormack and Falkow, 1999). The pFPG1-NEO plasmid and empty pFPG1 as a control were transformed into C. glabrata strain ATCC 200989 and tested for geneticin resistance under uninduced and induced conditions (FIG. 3C). […] In this case, induction of the MT-1 promoter in pFPG1 was not absolutely necessary to obtain adequate expression of the NEO gene.
The NEO pFPG2 plasmid and empty pFPG2 as a control were transformed into C. glabrata strain ATCC 200989 and tested for geneticin resistance on -Ura medium under uninduced and induced conditions (FIG. 6).

Q: Which “geneticin concentration required to suppress growth” value (strain ATCC 200989 with empty pFPG1 plasmid) does the source give for `CN[C@@H]1[C@@H](O)[C@@H](O[C@@H]2[C@@H](O)[C@H](O[C@H]3O[C@H]([C@@H](C)O)[C@@H](O)[C@H](O)[C@H]3N)[C@@H](N)C[C@H]2N)OC[C@]1(C)O` [geneticin] here?
A: The value was “about 1 mg/ml”.

Q: What about the “geneticin concentration required to suppress growth” value (strain ATCC 200989 with empty pFPG2 plasmid, -Ura medium) of the same compound?
A: Its value is “about 1 mg/ml”.
